Measured values reported in patent US20070184519A1, “Peptides, polypeptides, and proteins of reduced immunogenicity and methods for their production” (priority 2003, published 2007).
Like-named read-outs stand apart in the source and are kept apart here.

Experiments:
[1] = target: T1, DRB1*0101 (Homo sapiens, UniProt P01903+P01911, A100R/D57E/F55L/F60I/F76Y/I96L/L162R/M171V/P40L/Q125E/R42F/V115G/Y59C); test: Class II peptide-binding assay DRB1*0101 (DR1)
T1 construct: Epstein-Barr virus (EBV) transformed homozygous cell lines were used as sources of human HLA Class II molecules; endogenous in cells; host or cells: LG2 (EBV-transformed homozygous B cell line)

[2] = target: T2, DRB4*0101 (Homo sapiens, UniProt P01903+P13762, G164S); test: Class II peptide-binding assay DRB4*0101 (DRw53)
T2 construct: expressed in transfected cells; host or cells: transfected fibroblasts L257.6

[3] = target: T3, DRB1*1501 (Homo sapiens, UniProt P01903+P01911); test: Class II peptide-binding assay DRB1*1501 (DR2w2b)
T3 construct: expressed in transfected cells; host or cells: transfected fibroblasts L466.1

[4] = target: T4, DRB1*0301 (Homo sapiens, UniProt P01903+P01911, A100K/A102G/A103R/A169T/F55Y/I96L/K41T/L162R/M171V/P40S/Q125H/Q178H/Q39Y/R42S/S66N/T106N/T262R/W38E/Y61H); test: Class II peptide-binding assay DRB1*0301 (DR3)
T4 construct: Epstein-Barr virus (EBV) transformed homozygous cell lines were used as sources of human HLA Class II molecules; endogenous in cells; host or cells: MAT (EBV-transformed homozygous B cell line)
T4 sequence (P01903 26-254, other chains not shown): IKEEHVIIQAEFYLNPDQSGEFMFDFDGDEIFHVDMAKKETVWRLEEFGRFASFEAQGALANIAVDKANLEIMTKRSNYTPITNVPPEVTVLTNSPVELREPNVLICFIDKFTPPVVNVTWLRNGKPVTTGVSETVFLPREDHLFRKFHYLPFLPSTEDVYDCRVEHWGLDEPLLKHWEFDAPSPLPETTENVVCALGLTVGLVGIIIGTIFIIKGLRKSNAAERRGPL

[5] = target: T5, DRB1*0404 (Homo sapiens, UniProt P01903+P01911, A100R/A169T/F76Y/I96L/K127E/L162R/M171V/N62H/P40V/Q125Y/R42H/S133A/S149N/S66Y/V209L/W38E); test: Class II peptide-binding assay DRB1*0404 (DR4w14)
T5 construct: Epstein-Barr virus (EBV) transformed homozygous cell lines were used as sources of human HLA Class II molecules; endogenous in cells; host or cells: BIN40 (EBV-transformed homozygous B cell line)

[6] = target: T6, DRB1*0802 (Homo sapiens, UniProt P01903+P01911, A100R/A103L/A169T/F76Y/H45Y/I96F/K41T/L162R/M171V/P40S/Q125H/Q178H/Q39Y/Q99D/R218S/R42G/S66Y/V115G/W38E); test: Class II peptide-binding assay DRB1*0802 (DR8w2)
T6 construct: Epstein-Barr virus (EBV) transformed homozygous cell lines were used as sources of human HLA Class II molecules; endogenous in cells; host or cells: OLL (EBV-transformed homozygous B cell line)

[7] = target: T7, DRB1*0401 (Homo sapiens, UniProt P01903+P01911, A100K/A169T/F76Y/I96L/K127E/L162R/M171V/N62H/P40V/Q125Y/R42H/S133A/S149N/S66Y/V115G/V209L/W38E); test: Class II peptide-binding assay DRB1*0401 (DR4w4)
T7 construct: Epstein-Barr virus (EBV) transformed homozygous cell lines were used as sources of human HLA Class II molecules; endogenous in cells; host or cells: PREISS (EBV-transformed homozygous B cell line)

[8] = target: DRB1*0901 (Homo sapiens, UniProt P01903+P01911, A100R/A103E/D57H/D86V/F55Y/F60I/F76Y/I96F/K127E/L162R/M171V/P40D/Q125H/Q99R/R33Q/R42F/S133A/S66N/T210M/V115G/W38K/Y107V/Y59G/Y89S); test: Class II peptide-binding assay DRB1*0901 (DR9)
[9] = target: T8, DRB1*1101 (Homo sapiens, UniProt P01903+P01911, A100R/A169T/A87E/I96F/K41T/L162R/M171V/P40S/Q125H/Q178H/Q39Y/Q99D/R42S/S66Y/T262R/V115G/W38E); test: Class II peptide-binding assay DRB1*1101 (DR5w11)
T8 construct: Epstein-Barr virus (EBV) transformed homozygous cell lines were used as sources of human HLA Class II molecules; endogenous in cells; host or cells: SWEIG (EBV-transformed homozygous B cell line)
T8 sequence (P01903 26-254, other chains not shown): as above

[10] = target: T9, DRB1*1302 (Homo sapiens, UniProt P01903+P01911, A100E/A169T/K41T/L162R/M171V/P40S/Q125H/Q178H/Q39Y/Q99D/R42S/S66N/T262R/V115G/W38E/Y61H); test: Class II peptide-binding assay DRB1*1302 (DR6w19)
T9 construct: Epstein-Barr virus (EBV) transformed homozygous cell lines were used as sources of human HLA Class II molecules; endogenous in cells; host or cells: HO301 / H0301 (EBV-transformed homozygous B cell line)
T9 sequence (P01903 26-254, other chains not shown): as above

[11] = target: T10, DRB1*0405 (Homo sapiens, UniProt P01903+P01911, A100R/A169T/D86S/F76Y/I96L/K127E/L162R/M171V/N62H/P40V/Q125Y/R42H/S133A/S149N/S66Y/V115G/V209L/W38E); test: Class II peptide-binding assay DRB1*0405 (DR4w15)
T10 construct: Epstein-Barr virus (EBV) transformed homozygous cell lines were used as sources of human HLA Class II molecules; endogenous in cells; host or cells: KT3 (EBV-transformed homozygous B cell line)

[12] = target: T11, DRB1*0701 (Homo sapiens, UniProt P01903+P01911, A100R/A102G/A103Q/D57E/D86V/E43K/F76Y/K127E/L162R/M171V/P40G/Q125H/Q99D/R33Q/R42Y/R54Q/S133A/S66F/T210M/V115G/Y107V/Y59L/Y89S); test: Class II peptide-binding assay DRB1*0701 (DR7)
T11 construct: Epstein-Barr virus (EBV) transformed homozygous cell lines were used as sources of human HLA Class II molecules; endogenous in cells; host or cells: PITOUT (EBV-transformed homozygous B cell line)

[13] = target: T12, DRB5*0101 (Homo sapiens, UniProt P01903+Q30154); test: Class II peptide-binding assay DRB5*0101 (DR2w2a)
T12 construct: Epstein-Barr virus (EBV) transformed homozygous cell lines were used as sources of human HLA Class II molecules; endogenous in cells; host or cells: GM3107 (EBV-transformed homozygous B cell line)

[14] = target: T13, DRB3*0101 (Homo sapiens, UniProt P01903+P79483); test: Class II peptide-binding assay DRB3*0101 (DR52a)
T13 construct: expressed in transfected cells; host or cells: transfected fibroblasts TR81.19

[15] = cited from earlier work
[16] = scientific publications, package insert, FDA documents, patent applications

Molecule: CC(C)C[C@H](NC(=O)[C@@H]1CCCN1)C(=O)NCC(=O)N[C@@H](Cc1ccccc1)C(=O)N[C@@H](Cc1ccccc1)C(=O)N1CCC[C@H]1C(=O)N[C@@H](CC(=O)O)C(=O)N[C@@H](Cc1c[nH]cn1)C(=O)N[C@@H](CCC(N)=O)C(=O)N[C@@H](CC(C)C)C(=O)N[C@@H](CC(=O)O)C(=O)N1CCC[C@H]1C(=O)N[C@@H](C)C(=O)N[C@@H](Cc1ccccc1)C(=O)NCC(=O)N[C@@H](C)C(=O)N[C@@H](CC(N)=O)C(=O)N[C@@H](CO)C(=O)N[C@@H](CC(N)=O)C(=O)N[C@@H](CC(N)=O)C(=O)N1CCC[C@H]1C(=O)N[C@@H](CC(=O)O)C(=O)N[C@@H](Cc1c[nH]c2ccccc12)C(=O)N[C@@H](CC(=O)O)C(=O)N[C@@H](Cc1ccccc1)C(=O)N[C@@H](CC(N)=O)C(=O)N1CCC[C@H]1C(=O)O
- IC50 [1]: > 20 µM
- IC50 [2]: 3.14 µM
- IC50 [3]: 1.98 µM
- IC50 [4]: > 20 µM
- IC50 [5]: > 20 µM
- IC50 [6]: > 20 µM
- IC50 [7]: > 20 µM
- IC50 [8]: 15.7 µM
- IC50 [9]: > 20 µM
- IC50 [10]: > 10 µM
- IC50 [11]: 0.031 µM
- IC50 [12]: > 20 µM
- IC50 [13]: > 20 µM
- IC50 [14]: 0.311 µM

Molecule: Calcitonin: 32 amino acid polypeptide derived from salmon origin
- Immunogenicity (documented) ([15]; human, in vivo): YES

Molecule: Insulin: human insulin, alpha and beta chains
- Immunogenicity (documented) [15, 16]: YES

Molecule: hGH: 191 amino acid protein produced by recombinant DNA technology
- patients developing antibodies ([15]; human, in vivo): Thirty
- Immunogenicity (documented) [15, 16]: YES

B1: IFNβ: interferon beta (protein)
chain: MSYNLLGFLQRSSNCQCQKLLWQLNGRLEYCLKDRRNFDIPEEIKQLQQFQKEDAAVTIYEMLQNIFAIFRQDSSSTGWNETIVENLLANVYHQRNHLKTVLEEKLEKEDFTRGKRMSSLHLKRYYGRILHYLKAKEDSHCAWTIVRVEILRNFYVINRLTGYLRN
- Immunogenicity (documented) [15, 16]: YES
